Experimental data from ChEMBL document CHEMBL1148071, “New cytotoxic peroxylactones from the marine sponge, Plakinastrella onkodes” (J Nat Prod, 1994).
Converted amounts (≈) assume the structure as drawn.

Tests used:
[1] = tested on: A549; assay: Cytotoxicity against human A549 cells; format: functional, cell-based
[2] = tested on: P388; assay: Cytotoxicity against mouse P388 cells; format: functional, cell-based
[3] = Inhibition of cell adhesion in mouse EL-4.IL-2 cells; format: functional, cell-based
[4] = Induction of cell adhesion in mouse EL-4.IL-2 cells; format: functional, cell-based
[5] = molecular target: T1, Protein kinase C alpha type (Homo sapiens, UniProt P17252); assay: Agonist activity at PKCalpha at 50 ug/ml; format: functional
[6] = molecular target: T2, Protein kinase C beta type (Homo sapiens, UniProt P05771); assay: Agonist activity at PKCbeta1 at 50 ug/ml; format: functional
Target sequence in this assay (P05771 2-671 limits assumed): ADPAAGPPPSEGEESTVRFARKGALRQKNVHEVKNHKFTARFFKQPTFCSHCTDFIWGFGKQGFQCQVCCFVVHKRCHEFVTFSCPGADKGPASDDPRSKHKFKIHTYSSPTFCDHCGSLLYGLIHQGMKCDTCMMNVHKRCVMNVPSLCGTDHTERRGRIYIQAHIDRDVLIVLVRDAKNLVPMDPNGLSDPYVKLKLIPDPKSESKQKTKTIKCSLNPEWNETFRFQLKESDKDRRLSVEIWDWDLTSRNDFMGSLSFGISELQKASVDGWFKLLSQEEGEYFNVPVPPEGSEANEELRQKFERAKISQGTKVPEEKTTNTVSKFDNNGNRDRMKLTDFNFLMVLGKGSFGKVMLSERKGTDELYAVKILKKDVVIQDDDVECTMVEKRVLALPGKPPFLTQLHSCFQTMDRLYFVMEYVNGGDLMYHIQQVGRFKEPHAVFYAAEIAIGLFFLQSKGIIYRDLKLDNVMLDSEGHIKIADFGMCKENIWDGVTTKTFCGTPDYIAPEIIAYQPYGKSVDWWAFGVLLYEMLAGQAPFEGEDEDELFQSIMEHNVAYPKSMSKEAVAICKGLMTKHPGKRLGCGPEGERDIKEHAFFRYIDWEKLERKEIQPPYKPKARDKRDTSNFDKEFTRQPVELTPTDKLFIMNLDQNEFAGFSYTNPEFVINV

[7] = molecular target: T2, Protein kinase C beta type; assay: Agonist activity at PKCbeta2 at 50 ug/ml; format: functional
Target sequence in this assay (P05771 2-671 limits assumed): as above

[8] = molecular target: T3, Protein kinase C delta type (Homo sapiens, UniProt Q05655); assay: Agonist activity at PKCdelta at 50 ug/ml; format: functional
Target sequence in this assay (Q05655 whole entry, looked up): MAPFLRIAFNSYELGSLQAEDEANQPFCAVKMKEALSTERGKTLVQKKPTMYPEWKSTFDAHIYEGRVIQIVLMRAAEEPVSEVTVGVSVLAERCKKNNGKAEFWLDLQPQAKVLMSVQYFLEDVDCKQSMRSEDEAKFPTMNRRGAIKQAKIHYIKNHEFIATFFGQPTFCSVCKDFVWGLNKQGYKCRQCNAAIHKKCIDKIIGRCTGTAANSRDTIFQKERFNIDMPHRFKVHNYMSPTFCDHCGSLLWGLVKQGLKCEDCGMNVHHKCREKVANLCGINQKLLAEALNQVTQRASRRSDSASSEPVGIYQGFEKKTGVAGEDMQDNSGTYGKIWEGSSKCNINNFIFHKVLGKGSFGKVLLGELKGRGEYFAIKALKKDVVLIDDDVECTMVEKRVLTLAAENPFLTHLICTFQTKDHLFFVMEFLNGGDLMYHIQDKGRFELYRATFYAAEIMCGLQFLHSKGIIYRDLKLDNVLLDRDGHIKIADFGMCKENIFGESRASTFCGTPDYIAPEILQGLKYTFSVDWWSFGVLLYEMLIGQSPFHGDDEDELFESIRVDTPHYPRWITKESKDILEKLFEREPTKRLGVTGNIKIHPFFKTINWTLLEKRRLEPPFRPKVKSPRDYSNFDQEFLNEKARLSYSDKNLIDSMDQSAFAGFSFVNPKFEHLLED

[9] = molecular target: T4, Protein kinase C epsilon type (Homo sapiens) (UniProt Q02156); assay: Agonist activity at PKCepsilon at 50 ug/ml; format: functional
T4 sequence (whole entry): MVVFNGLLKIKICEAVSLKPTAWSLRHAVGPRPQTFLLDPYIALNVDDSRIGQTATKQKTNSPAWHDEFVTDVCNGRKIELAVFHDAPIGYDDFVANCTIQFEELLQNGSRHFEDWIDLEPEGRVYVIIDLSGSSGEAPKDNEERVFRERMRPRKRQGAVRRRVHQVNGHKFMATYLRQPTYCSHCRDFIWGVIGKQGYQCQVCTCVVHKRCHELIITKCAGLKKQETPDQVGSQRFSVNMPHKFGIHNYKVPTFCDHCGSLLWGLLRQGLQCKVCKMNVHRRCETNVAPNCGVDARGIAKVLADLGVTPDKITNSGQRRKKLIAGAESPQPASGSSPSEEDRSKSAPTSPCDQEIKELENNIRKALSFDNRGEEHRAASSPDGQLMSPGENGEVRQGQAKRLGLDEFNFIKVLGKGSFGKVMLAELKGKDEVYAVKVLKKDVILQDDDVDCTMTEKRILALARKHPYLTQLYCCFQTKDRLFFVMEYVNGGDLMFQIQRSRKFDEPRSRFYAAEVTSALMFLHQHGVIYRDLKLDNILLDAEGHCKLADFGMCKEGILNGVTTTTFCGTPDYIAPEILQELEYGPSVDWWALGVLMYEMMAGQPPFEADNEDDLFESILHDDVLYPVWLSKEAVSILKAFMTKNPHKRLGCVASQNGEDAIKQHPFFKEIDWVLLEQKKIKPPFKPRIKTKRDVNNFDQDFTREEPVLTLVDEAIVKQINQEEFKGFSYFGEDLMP

[10] = molecular target: Protein kinase C gamma type (Homo sapiens) (UniProt P05129); assay: Agonist activity at PKCgamma at 50 ug/ml; format: functional
[11] = molecular target: T1, Protein kinase C alpha type; assay: Inhibition of PKCalpha
[12] = molecular target: T2, Protein kinase C beta type; assay: Inhibition of PKCbeta1
Target sequence in this assay (P05771 whole entry): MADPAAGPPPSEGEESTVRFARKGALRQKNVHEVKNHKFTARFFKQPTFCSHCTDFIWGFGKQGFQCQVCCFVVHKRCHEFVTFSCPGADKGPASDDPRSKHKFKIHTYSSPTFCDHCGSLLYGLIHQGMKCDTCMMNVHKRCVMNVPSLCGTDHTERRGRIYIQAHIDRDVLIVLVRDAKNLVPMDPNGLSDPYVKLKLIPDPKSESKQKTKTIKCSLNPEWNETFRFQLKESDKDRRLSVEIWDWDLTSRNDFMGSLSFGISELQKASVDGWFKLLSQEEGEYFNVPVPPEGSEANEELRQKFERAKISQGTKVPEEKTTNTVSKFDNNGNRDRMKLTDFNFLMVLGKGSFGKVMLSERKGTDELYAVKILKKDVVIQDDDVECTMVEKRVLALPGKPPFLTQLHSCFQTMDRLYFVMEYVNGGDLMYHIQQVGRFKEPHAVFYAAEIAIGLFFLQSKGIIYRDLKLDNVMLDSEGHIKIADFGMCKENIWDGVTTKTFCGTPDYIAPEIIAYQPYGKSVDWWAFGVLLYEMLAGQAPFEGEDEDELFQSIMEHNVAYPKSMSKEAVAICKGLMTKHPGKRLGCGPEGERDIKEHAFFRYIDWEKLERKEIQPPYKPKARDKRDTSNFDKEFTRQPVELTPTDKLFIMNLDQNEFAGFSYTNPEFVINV

[13] = molecular target: T2, Protein kinase C beta type; assay: Inhibition of PKCbeta2
Target sequence in this assay (P05771 whole entry): as above

[14] = molecular target: T3, Protein kinase C delta type; assay: Inhibition of PKCdelta
Target sequence in this assay (Q05655 whole entry): as the sequence (Q05655 whole entry, looked up) above

Structure (SMILES): COC(=O)C[C@@]1(C)C[C@](C)(CC(C)CCCCCCc2ccccc2)OO1 (some centres undefined) [EPIPLAKINIC ACID E METHYL ESTER]
- IC50 [1]: 2 µg/mL (≈ 5.31 µM)
- IC50 [2]: 2.5 µg/mL (≈ 6.64 µM)
- IC50 [3]: 4.6 µg/mL (≈ 12.2 µM)

Structure (SMILES): CC(CCCCCCCCc1ccccc1)C[C@]1(C)C[C@]2(C)OC(=O)C[C@@H]2OO1 (some centres undefined) [PLAKORTOLIDE B]
- IC50 [1]: 1.3 µg/mL (≈ 3.23 µM)
- IC50 [2]: 0.4 µg/mL (≈ 0.994 µM)
- IC50 [4]: 4.4 µg/mL (≈ 10.9 µM)
- Activity [5]: -19%
- Activity [6]: -13%
- Activity [7]: -27%
- Activity [8]: -9%
- Activity [9]: -38%
- Activity [10]: -9%

Structure (SMILES): CCCCCCCCCCCCCCCC[C@@]1(OC)C=C[C@@H](CC(=O)OC)OO1 [CHONDRILLIN]
- IC50 [11]: 87.2 µM
- IC50 [12]: 119 µM
- IC50 [13]: 119 µM
- IC50 [14]: 55.7 µM

Structure (SMILES): CC(CCCCCCc1ccccc1)CC(C)C[C@]1(C)C[C@]2(C)OC(=O)C[C@@H]2OO1 (some centres undefined) [PLAKORTOLIDE D]
- IC50 [1]: 3.8 µg/mL (≈ 9.12 µM)
- IC50 [2]: 0.8 µg/mL (≈ 1.92 µM)
- IC50 [3]: 15.8 µg/mL (≈ 37.9 µM)
